Source: ChEMBL document CHEMBL3352258 (J Med Chem, 2014)
Values after ≈ are worked out from the molar mass of the structure shown. Active and inactive are the calls of the source. The rule behind the calls is not given here.

Legend:
[1] = target: T1, Glucose-dependent insulinotropic receptor (Homo sapiens, UniProt Q8TDV5); assay: Agonist activity at human GPR119
T1 sequence (Q8TDV5 whole entry): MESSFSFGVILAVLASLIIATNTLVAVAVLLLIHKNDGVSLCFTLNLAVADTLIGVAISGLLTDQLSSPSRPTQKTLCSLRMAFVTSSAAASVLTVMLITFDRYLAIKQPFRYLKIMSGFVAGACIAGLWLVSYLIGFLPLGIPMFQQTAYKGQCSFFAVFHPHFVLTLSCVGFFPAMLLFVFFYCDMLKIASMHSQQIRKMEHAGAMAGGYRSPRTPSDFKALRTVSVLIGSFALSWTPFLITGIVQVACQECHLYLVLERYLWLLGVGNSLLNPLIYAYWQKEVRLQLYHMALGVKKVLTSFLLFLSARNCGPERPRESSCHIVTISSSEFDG

[2] = target: T2, Glucose-dependent insulinotropic receptor (Homo sapiens) (UniProt Q8TDV5); assay: Intrinsic activity at human GPR119 relative to control
T2 sequence (whole entry): T1 sequence (Q8TDV5 whole entry)

[3] = Inhibition of cytochrome P450 (unknown origin); format: ADME, Homo sapiens
[4] = target: T3, Nuclear receptor subfamily 1 group I member 2 (Homo sapiens, UniProt O75469); assay: Activation of PXR (unknown origin); format: ADME
T3 sequence (O75469 whole entry): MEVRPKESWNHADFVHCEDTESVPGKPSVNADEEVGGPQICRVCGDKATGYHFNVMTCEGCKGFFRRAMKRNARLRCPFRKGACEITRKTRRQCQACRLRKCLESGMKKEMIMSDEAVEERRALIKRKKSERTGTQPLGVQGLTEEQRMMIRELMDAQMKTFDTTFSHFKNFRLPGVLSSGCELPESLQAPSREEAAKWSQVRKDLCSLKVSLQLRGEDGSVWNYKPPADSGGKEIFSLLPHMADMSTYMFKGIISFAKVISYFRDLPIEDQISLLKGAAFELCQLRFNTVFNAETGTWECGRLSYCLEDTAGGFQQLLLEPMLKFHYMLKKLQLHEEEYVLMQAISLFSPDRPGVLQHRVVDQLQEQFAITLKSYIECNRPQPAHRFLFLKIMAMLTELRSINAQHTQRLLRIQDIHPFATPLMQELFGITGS

HepG2 = assay: Cytotoxicity against human HepG2 cells at 40 uM; format: cell-based; details: hepg2, 40 µM
hERG (KCNH2) = hERG (KCNH2) (Homo sapiens, UniProt Q12809); assay: Inhibition of human ERG at 10 uM by patch clamp assay
Chain of hERG (KCNH2) (Q12809 whole entry): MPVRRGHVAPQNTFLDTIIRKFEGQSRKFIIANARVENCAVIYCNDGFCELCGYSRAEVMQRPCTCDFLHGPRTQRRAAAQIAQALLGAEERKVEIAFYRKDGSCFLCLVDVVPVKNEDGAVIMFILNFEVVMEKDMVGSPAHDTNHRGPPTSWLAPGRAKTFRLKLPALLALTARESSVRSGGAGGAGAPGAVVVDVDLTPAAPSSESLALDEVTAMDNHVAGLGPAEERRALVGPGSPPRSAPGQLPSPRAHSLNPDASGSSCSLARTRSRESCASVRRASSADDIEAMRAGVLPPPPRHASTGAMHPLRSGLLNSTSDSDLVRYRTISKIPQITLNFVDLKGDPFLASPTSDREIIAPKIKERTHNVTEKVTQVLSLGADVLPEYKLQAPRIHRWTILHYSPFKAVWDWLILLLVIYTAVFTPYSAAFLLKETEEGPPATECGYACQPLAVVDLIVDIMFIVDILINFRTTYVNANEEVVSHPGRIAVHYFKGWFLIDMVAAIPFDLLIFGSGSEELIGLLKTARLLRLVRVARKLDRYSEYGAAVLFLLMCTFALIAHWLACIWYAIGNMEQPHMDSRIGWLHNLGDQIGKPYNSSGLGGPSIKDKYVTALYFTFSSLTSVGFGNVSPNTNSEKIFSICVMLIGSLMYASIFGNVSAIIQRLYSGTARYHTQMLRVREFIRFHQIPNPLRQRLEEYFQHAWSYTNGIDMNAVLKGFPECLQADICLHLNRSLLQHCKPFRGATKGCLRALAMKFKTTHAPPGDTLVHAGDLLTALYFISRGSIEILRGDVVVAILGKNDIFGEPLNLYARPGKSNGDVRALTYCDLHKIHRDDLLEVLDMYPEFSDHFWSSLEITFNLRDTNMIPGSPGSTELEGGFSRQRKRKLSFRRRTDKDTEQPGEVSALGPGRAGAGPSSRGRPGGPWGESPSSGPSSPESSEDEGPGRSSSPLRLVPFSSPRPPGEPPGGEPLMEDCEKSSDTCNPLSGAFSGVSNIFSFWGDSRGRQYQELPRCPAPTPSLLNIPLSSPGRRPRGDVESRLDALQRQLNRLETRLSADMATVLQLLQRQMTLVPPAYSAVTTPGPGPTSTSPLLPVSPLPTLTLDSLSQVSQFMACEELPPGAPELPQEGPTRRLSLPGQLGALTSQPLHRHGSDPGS

[5] = Permeability of the compound by PAMPA assay; format: ADME; details: read-out: permeability
[6] = Permeability of the compound across human Caco2 cells; format: ADME, cell-based; details: Caco-2, read-out: permeability
[7] = Cmax in C57BL/6 mouse at 30 mg/kg, po after 2 hrs; format: ADME, organism-based; parameters: dose 30 mg/kg, route oral; details: in vivo
[8] = AUC in C57BL/6 mouse at 30 mg/kg, po; format: ADME, organism-based; parameters: dose 30 mg/kg, route oral; details: plasma
[9] = Terminal half life in C57BL/6 mouse at 30 mg/kg, po; format: ADME, organism-based; parameters: dose 30 mg/kg, route oral; details: in vivo, read-out: beta t1/2 (converted)
Mus musculus [10] = assay: Antidiabetic activity in db/db mouse assessed as reduction in blood glucose level at 0.3 mg/kg, po qd administered 1 hr prior glucose challenge measured after 21 days by oral glucose tolerance test; format: functional; parameters: scale not given: the % may be the effect or the level left
Mus musculus [11] = assay: Antidiabetic activity in db/db mouse assessed as reduction in glucose AUC at 3 mg/kg, po qd administered 1 hr prior glucose challenge measured after 21 days by oral glucose tolerance test relative to control; format: functional; parameters: scale not given: the % may be the effect or the level left
Mus musculus [12] = assay: Antidiabetic activity in db/db mouse assessed as reduction in glucose AUC at 30 mg/kg, po qd administered 1 hr prior glucose challenge measured after 21 days by oral glucose tolerance test relative to control; format: functional; parameters: scale not given: the % may be the effect or the level left
Mus musculus [13] = assay: Antidiabetic activity in db/db mouse assessed as HbA1C level at 30 mg/kg, po qd administered 1 hr prior glucose challenge measured after 21 days by oral glucose tolerance test (reference value: 2.8%); format: functional
Mus musculus [14] = assay: Antidiabetic activity in db/db mouse assessed as reduction in HbA1C level at 0.3 mg/kg, po qd administered 1 hr prior glucose challenge measured after 21 days by oral glucose tolerance test relative to control; format: functional; parameters: scale not given: the % may be the effect or the level left
Mus musculus [15] = assay: Antidiabetic activity in db/db mouse assessed as reduction in HbA1C level at 3 mg/kg, po qd administered 1 hr prior glucose challenge measured after 21 days by oral glucose tolerance test relative to control; format: functional; parameters: scale not given: the % may be the effect or the level left
[16] = Protein binding in rat plasma; format: ADME, cell-free; details: read-out: PPB
[17] = Solubility of the compound at pH 1; format: physicochemical; details: buffer
[18] = Solubility of the compound at pH 6.5; format: physicochemical; details: buffer
[19] = Half life in human liver microsomes; format: ADME
[20] = Half life in mouse; format: ADME, organism-based; details: in vivo
Rattus norvegicus [21] = assay: Half life in Sprague-Dawley rat at 5 mg/kg, po; format: ADME, organism-based; parameters: dose 5 mg/kg, route oral; details: in vivo
[22] = Solubility of the compound in 50% PEG400/ 50% PBS solution; format: physicochemical
Rattus norvegicus [23] = assay: Tmax in Sprague-Dawley rat at 5 mg/kg, po; format: ADME, organism-based; parameters: dose 5 mg/kg, route oral; details: in vivo
Rattus norvegicus [24] = assay: Cmax in Sprague-Dawley rat at 5 mg/kg, po; format: ADME, organism-based; parameters: dose 5 mg/kg, route oral; details: in vivo
Rattus norvegicus [25] = assay: AUC (total) in Sprague-Dawley rat at 5 mg/kg, po; format: ADME, organism-based, Plasma; parameters: dose 5 mg/kg, route oral; details: in vivo
[26] = Oral bioavailability in Sprague-Dawley rat at 5 mg/kg administered as suspension; format: ADME, organism-based; details: in vivo
[27] = Oral bioavailability in Sprague-Dawley rat at 5 mg/kg administered as HMPC SDD formulation; format: ADME, organism-based; details: in vivo
[28] = Clearance in Sprague-Dawley rat at 1 mg/kg, iv; format: ADME, organism-based; parameters: dose 1 mg/kg, route intravenous; details: in vivo
[29] = Volume of distribution at steady state in Sprague-Dawley rat at 1 mg/kg, iv; format: ADME, organism-based; parameters: dose 1 mg/kg, route intravenous; details: in vivo, read-out: Vdss
Salmonella typhimurium = assay: Genotoxicity in Salmonella typhimurium; format: toxicity, organism-based; details: salmonella enterica subsp. enterica serovar typhimurium
[30] = Protein binding in human plasma; format: ADME, cell-free; details: read-out: PPB (converted)
Oryctolagus cuniculus = species: Oryctolagus cuniculus; assay: Toxicity in rabbit at plasma concentration 20 uM by electrophysiology study; format: organism-based; details: in vivo
Cynomolgus monkey = assay: Toxicity in cynomolgus monkey at plasma concentration 20 uM by electrophysiology study; format: organism-based, Macaca fascicularis; details: in vivo
Mus musculus [31] = assay: Antidiabetic activity in C57BL/6J mouse assessed as reduction in glucose AUC at 0.03 mg/kg, po by oral glucose tolerance test relative to vehicle-treated control; format: functional; parameters: scale not given: the % may be the effect or the level left
Mus musculus [32] = assay: Antidiabetic activity in C57BL/6J mouse assessed as reduction in glucose AUC at 0.1 mg/kg, po by oral glucose tolerance test relative to vehicle-treated control; format: functional; parameters: scale not given: the % may be the effect or the level left
Mus musculus [33] = assay: Antidiabetic activity in C57BL/6J mouse assessed as reduction in glucose AUC at 0.3 mg/kg, po by oral glucose tolerance test relative to vehicle-treated control; format: functional; parameters: scale not given: the % may be the effect or the level left
Mus musculus [34] = assay: Antidiabetic activity in C57BL/6J mouse assessed as reduction in glucose AUC at 1 mg/kg, po by oral glucose tolerance test relative to vehicle-treated control; format: functional; parameters: scale not given: the % may be the effect or the level left
Rattus norvegicus [35] = assay: Stimulation of glucose-induced GLP-1 release in cannulated Sprague-Dawley rat at 0.3 mg/kg, po administered 1 hr prior glucose challenge relative to vehicle-treated control; format: functional, organism-based; parameters: dose 0.3 mg/kg
Rattus norvegicus [36] = assay: Stimulation of glucose-induced GLP-1 release in cannulated Sprague-Dawley rat at 0.3 mg/kg, po administered 1 hr prior glucose challenge in presence of DPP4 inhibitor relative to vehicle-treated control; format: functional, organism-based; parameters: dose 0.3 mg/kg
Mus musculus [37] = assay: Antidiabetic activity in db/db mouse assessed as reduction in blood glucose level at 0.03 mg/kg, po qd administered 1 hr prior glucose challenge measured after 21 days by oral glucose tolerance test; format: functional; parameters: scale not given: the % may be the effect or the level left
Mus musculus [38] = assay: Antidiabetic activity in db/db mouse assessed as reduction in blood glucose level at 0.01 mg/kg, po qd administered 1 hr prior glucose challenge measured after 21 days by oral glucose tolerance test; format: functional; parameters: scale not given: the % may be the effect or the level left
Homo sapiens [39] = assay: Toxicity in human at 0.1 to 120 mg, po; format: organism-based; details: in vivo
[40] = Terminal half life in human at 0.1 to 120 mg, po; format: ADME, organism-based; details: in vivo, read-out: beta t1/2 (converted)
Homo sapiens [41] = assay: Antidiabetic activity in human assessed as reduction in 24 hrs glucose AUC at 0.1 to 120 mg, po measured on day 1; format: functional, organism-based
Homo sapiens [42] = assay: Antidiabetic activity in po dosed human assessed as increase in 24 hrs GLP1 AUC measured on day 1; format: functional, organism-based
Homo sapiens [43] = assay: Antidiabetic activity in human assessed as increase in total GLP1 AUC at 0.6 mg, po measured on day 1; format: functional
Homo sapiens [44] = assay: Antidiabetic activity in human assessed as increase in total GLP1 AUC at 10 mg, po measured on day 1; format: functional
Mus musculus [45] = assay: Antidiabetic activity in db/db mouse assessed as reduction in blood glucose level at 3 mg/kg, po qd administered 1 hr prior glucose challenge measured after 21 days by oral glucose tolerance test; format: functional; parameters: scale not given: the % may be the effect or the level left
Mus musculus [46] = assay: Antidiabetic activity in db/db mouse assessed as reduction in blood glucose level at 30 mg/kg, po qd administered 1 hr prior glucose challenge measured after 21 days by oral glucose tolerance test; format: functional; parameters: scale not given: the % may be the effect or the level left
Mus musculus [47] = assay: Antidiabetic activity in db/db mouse assessed as increase in fasting plasma insulin level at 0.01 to 0.3 mg/kg, po qd administered 1 hr prior glucose challenge measured after 21 days; format: functional, organism-based
Mus musculus [48] = assay: Antidiabetic activity in db/db mouse assessed as reduction in glucose AUC at 300 mg/kg, po qd administered 1 hr prior glucose challenge measured after 21 days by oral glucose tolerance test relative to control; format: functional; parameters: scale not given: the % may be the effect or the level left
Mus musculus [49] = assay: Antidiabetic activity in db/db mouse assessed as HbA1C level at 300 mg/kg, po qd administered 1 hr prior glucose challenge measured after 21 days by oral glucose tolerance test (reference value: 2.8%); format: functional

CCCc1cnc(N2CCC(Oc3ccn(-c4ccc(S(C)(=O)=O)cc4F)c(=O)c3)CC2)nc1
EC50 [1]: 0.018 µM
Intrinsic activity [2]: 1
IC50 [3]: > 40 µM
EC50 [4]: > 50 µM
Activity (HepG2): Non-toxic
inhibition at 10 µM (hERG (KCNH2)): 47%
Papp [5]: 320 nm/s
Papp [6]: 220 nm/s
Cmax [7]: 38.6 µM
AUC [8]: 245 µM·h
half-life [9]: 2.4 h
Activity (Mus musculus [10]): 16%
Activity (Mus musculus [11]): 32%
Activity (Mus musculus [12]): 38%
Activity (Mus musculus [13]): 1.4%
Activity (Mus musculus [14]): 0.6%
Activity (Mus musculus [15]): 0.4%
fraction unbound [16]: 0.01
solubility [17]: 0.63 mg/mL (≈ 1290 µM)

CS(=O)(=O)c1ccc(-n2cc(Cl)c(OC3CCN(c4ncc(Cl)cn4)CC3)cc2=O)c(F)c1 [BMS-903452]
EC50 [1]: 0.014 µM
solubility [18]: < 0.001 mg/mL
half-life [19]: 1.4 h
half-life [20]: 0.25 h
t1/2 (Rattus norvegicus [21]): 0.367 h
solubility [22]: 0.041 mg/mL (≈ 79.9 µM)
Tmax (Rattus norvegicus [23]): 4 h
Cmax (Rattus norvegicus [24]): 2.7 µM
AUC (Rattus norvegicus [25]): 95 µM·h
bioavailability [26]: 33%
bioavailability [27]: 87%
clearance [28]: 0.09 L/h/kg
Vd [29]: 2.2 L/kg
IC50 [3]: > 40 µM
EC50 [4]: > 50 µM
Activity (HepG2): Non-toxic
Activity (Salmonella typhimurium): Non-toxic
fraction unbound [30]: 0.005
Activity (Oryctolagus cuniculus): Non-toxic
Activity (Cynomolgus monkey): Non-toxic
Activity (Mus musculus [31]): 14%
Activity (Mus musculus [32]): 37%
Activity (Mus musculus [33]): 39%
Activity (Mus musculus [34]): 40%
Activity (Rattus norvegicus [35]): Active
Activity (Rattus norvegicus [36]): Active
Activity (Mus musculus [37]): 36%
Activity (Mus musculus [38]): 18%
Activity (Homo sapiens [39]): Non-toxic
half-life [40]: 36 h
Activity (Homo sapiens [41]): inactive
Activity (Homo sapiens [42]): Dose-dependent effect
Activity (Homo sapiens [43]): 20%
Activity (Homo sapiens [44]): 50%
Activity (Mus musculus [45]): 13%
Activity (Mus musculus [46]): 38%
Activity (Mus musculus [47]): Active

CN(C)C(=N)NC(=N)N [METFORMIN]
Activity (Mus musculus [48]): 83%
Activity (Mus musculus [49]): 1.4%
